Assay results published in US20230271965A1, “BICYCLIC HETEROARENES AND METHODS OF THEIR USE” (Kineta, Inc., priority 2020, published 2023).
Like-named read-outs stand apart in the source and are kept apart here.

Key:
[1] = biological target: T1, full-length human PIKFYVE (GST-PIKFYVE) (Homo sapiens, UniProt Q9Y2I7, L932S/Q1183K/Q995L/S1033A/S696N/T998S); experiment: PIKfyve biochemical assay (ADP-Glo Kinase assay, Carna Biosciences)
T1 construct: A full-length human PIKFYVE [1-2098 (end) amino acids; purchased Carna Biosciences; host or cells: baculovirus expression system
T1 sequence (Q9Y2I7 whole entry S696N/L932S/Q995L/T998S/S1033A/Q1183K): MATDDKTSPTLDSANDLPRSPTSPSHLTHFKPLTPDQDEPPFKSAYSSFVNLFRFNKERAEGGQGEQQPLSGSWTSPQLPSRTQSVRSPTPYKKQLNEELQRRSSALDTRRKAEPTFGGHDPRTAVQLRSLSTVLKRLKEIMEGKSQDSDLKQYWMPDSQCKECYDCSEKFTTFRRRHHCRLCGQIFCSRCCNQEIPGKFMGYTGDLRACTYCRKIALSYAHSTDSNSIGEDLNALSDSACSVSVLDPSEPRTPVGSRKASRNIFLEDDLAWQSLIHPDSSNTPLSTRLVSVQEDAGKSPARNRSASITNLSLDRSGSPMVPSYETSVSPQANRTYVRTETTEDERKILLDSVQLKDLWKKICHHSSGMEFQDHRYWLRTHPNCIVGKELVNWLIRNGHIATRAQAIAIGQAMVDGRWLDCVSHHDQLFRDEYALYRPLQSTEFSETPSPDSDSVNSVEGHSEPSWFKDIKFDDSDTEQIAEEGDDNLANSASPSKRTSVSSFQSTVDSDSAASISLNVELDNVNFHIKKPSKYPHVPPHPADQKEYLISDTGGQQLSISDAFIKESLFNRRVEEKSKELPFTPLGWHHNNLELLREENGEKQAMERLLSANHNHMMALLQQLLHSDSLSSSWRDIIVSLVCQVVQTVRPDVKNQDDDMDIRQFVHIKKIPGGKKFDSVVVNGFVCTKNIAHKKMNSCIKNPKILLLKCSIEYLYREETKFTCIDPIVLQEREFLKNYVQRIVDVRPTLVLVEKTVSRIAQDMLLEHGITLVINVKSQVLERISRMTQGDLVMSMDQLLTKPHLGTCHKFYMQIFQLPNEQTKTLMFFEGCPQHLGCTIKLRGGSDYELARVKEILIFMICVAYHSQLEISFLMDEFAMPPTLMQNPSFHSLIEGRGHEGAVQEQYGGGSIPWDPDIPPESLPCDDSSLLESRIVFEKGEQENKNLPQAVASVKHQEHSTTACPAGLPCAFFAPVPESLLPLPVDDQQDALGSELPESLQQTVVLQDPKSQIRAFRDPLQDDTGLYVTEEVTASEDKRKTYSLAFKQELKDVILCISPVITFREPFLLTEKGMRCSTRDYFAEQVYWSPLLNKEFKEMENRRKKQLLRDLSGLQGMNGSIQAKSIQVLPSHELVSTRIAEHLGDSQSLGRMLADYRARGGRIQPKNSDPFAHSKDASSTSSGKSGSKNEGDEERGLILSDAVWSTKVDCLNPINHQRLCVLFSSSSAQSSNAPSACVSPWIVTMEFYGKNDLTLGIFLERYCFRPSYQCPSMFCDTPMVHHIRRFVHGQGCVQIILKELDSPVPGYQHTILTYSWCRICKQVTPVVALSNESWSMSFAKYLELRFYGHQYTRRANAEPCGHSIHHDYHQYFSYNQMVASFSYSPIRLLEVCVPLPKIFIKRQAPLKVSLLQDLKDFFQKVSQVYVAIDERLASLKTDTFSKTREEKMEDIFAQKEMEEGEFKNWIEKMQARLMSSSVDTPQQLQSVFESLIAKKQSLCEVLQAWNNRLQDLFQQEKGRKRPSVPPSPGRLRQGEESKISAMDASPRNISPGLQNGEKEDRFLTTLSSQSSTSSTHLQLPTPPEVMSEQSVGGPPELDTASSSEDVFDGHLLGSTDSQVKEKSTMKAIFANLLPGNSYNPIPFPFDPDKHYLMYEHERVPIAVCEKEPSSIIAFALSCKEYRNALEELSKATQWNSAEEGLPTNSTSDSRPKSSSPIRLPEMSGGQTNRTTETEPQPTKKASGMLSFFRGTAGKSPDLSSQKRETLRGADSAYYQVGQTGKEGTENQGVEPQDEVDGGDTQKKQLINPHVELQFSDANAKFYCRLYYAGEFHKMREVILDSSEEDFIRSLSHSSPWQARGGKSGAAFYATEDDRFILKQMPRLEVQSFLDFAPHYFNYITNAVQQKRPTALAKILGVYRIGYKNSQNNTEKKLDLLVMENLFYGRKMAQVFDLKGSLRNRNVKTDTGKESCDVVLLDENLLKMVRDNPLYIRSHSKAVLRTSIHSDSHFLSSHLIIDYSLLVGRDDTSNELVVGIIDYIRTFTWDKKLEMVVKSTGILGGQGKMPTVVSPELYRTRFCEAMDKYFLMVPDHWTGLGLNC
Description: PIKfyve Biochemical Assay. The biochemical PIKFyve inhibition assays were run by Carna Biosciences according to proprietary methodology based on the Promega ADP-Glo™ Kinase assay. […] GST-PIKFYVE was purified by using glutathione sepharose chromatography and used in an ADP-Glo™ Kinase assay (Promega). Reactions were set up by adding the test compound solution, substrate solution, ATP solution and kinase solution, each at 4×final concentrations. Reactions were prepared with assay buffer (50 mM MOPS, 1 mM DTT, pH7.2), mixed, and incubated in black 384 well polystyrene plates for 1 hour at room temperature. ADP-Glo™ reagent was then added for 40 minutes, followed by kinase detection reagent for an additional 40 minutes. The kinase activity was evaluated by detecting relative light units on a luminescence plate reader. Samples were run in duplicate from 10 μM to 3 nM. […] IC50 values were calculated from concentration vs % inhibition curves by fitting to a four-parameter logistic curve.
The biochemical PIKFyve inhibition assays were run by Carna Biosciences according to proprietary methodology based on the Promega ADP-Glo™ Kinase assay. […] GST-PIKFYVE was purified by using glutathione sepharose chromatography and used in an ADP-Glo™ Kinase assay (Promega).
Reactions were set up by adding the test compound solution, substrate solution, ATP solution and kinase solution, each at 4×final concentrations. Reactions were prepared with assay buffer (50 mM MOPS, 1 mM DTT, pH7.2), mixed, and incubated in black 384 well polystyrene plates for 1 hour at room temperature. ADP-Glo™ reagent was then added for 40 minutes, followed by kinase detection reagent for an additional 40 minutes. The kinase activity was evaluated by detecting relative light units on a luminescence plate reader. Samples were run in duplicate from 10 uM to 3 nM. […] IC50 values were calculated from concentration vs % inhibition curves by fitting to a four-parameter logistic curve.

[2] = tested on: PIKFYVE TDP-43 yeast strain; experiment: Propidium iodide viability assay, PIKFYVE TDP-43 yeast strain; assay type: cell-based; details: Saccharomyces cerevisiae; reduction in PI-positive cells, 24 hours, values plotted in FIG. 7
Description: Generation of TDP-43 yeast model expressing human PIKfyve. Human PIKFYVE (“entry clone”) was cloned into pAG416GPDccdB (“destination vector”) according to standard Gateway cloning protocols (Invitrogen, Life Technologies). The resulting pAG416GPD-PIKFYVE plasmids were amplified in E. coli and plasmid identity confirmed by restriction digest and Sanger sequencing. Lithium acetate/polyethylene glycol-based transformation was used to introduce the above PIKFYVE plasmid into a BY4741 yeast strain auxotrophic for the ura3 gene and deleted for two transcription factors that regulate the xenobiotic efflux pumps, a major efflux pump, and FAB1, the yeast ortholog of PIKFYVE (MATa, snq2::KILeu2; pdr3::KIura3; pdr1::NATMX; fab1::G418^R, his3; leu2; ura3; met15; LYS2+) (FIG. 2).
Transformed yeast were plated on solid agar plates with complete synthetic media lacking uracil (CSM-ura) and containing 2% glucose. Individual colonies harboring the control or PIKFYVE TDP-43 plasmids were recovered. A plasmid containing wild-type TDP-43 under the transcriptional control of the GAL1 promoter and containing the hygromycin-resistance gene as a selectable marker was transformed into the fab1::G418^R pAG416GPD-PIKFYVE yeast strain (FIG. 1). Transformed yeast were plated on CSM-ura containing 2% glucose and […] after overnight recovery in media lacking antibiotic. Multiple independent isolates were further evaluated for cytotoxicity and TDP-43 expression levels.
Viability Assay. A control yeast strain with the wild-type yeast FAB1 gene and TDP-43 (“FAB1 TDP-43”, carries empty pAG416 plasmid), and the “PIKFYVE TDP-43” yeast strain, were assessed for toxicity using a propidium iodide viability assay. Both yeast strains were transferred from solid CSM-ura/2% glucose agar plates into 3 mL of liquid CSM-ura/2% glucose media for 6-8 hours at 30° C. with aeration. Yeast cultures were then diluted to an optical density at 600 nm wavelength (OD600) of 0.005 in 3 mL of CSM-ura/2% raffinose and grown overnight at 30° C. with aeration to an OD600 of 0.3-0.8. Log-phase overnight cultures were diluted to OD600 of 0.005 in CSM-ura containing either 2% raffinose or galactose and 150 μL dispensed into each well of a flat bottom 96-well plates. Compounds formulated in 100% dimethyl sulfoxide (DMSO) were serially diluted in DMSO and 1.5 μL diluted compound transferred to the 96-well plates using a multichannel pipet. Wells containing DMSO alone were also evaluated as controls for compound effects. Tested concentrations ranged from 15 μM to […]. Cultures were immediately mixed to ensure compound distribution and covered plates incubated at 30° C. for 24 hours in a stationary, humified incubator.
Upon the completion of incubation, cultures were assayed for viability using propidium iodide (PI) to stain for dead/dying cells. A working solution of PI was made where, for each plate, 1 μL of 10 mM PI was added to 10 mL of CSM-ura (raffinose or galactose). The final PI solution (50 μL/well) was dispensed into each well of a new round bottom 96-well plate. The overnight 96-well assay plate was then mixed with a multichannel pipet and 50 μL transferred to the PI-containing plate. This plate was then incubated for 30 minutes at 30° C. in the dark. A benchtop flow cytometer (Miltenyi MACSquant) was then used to assess red fluorescence ([…]), forward scatter, and side scatter (with following settings: gentle mix, high flow rate, fast measurement, 10,000 events). Intensity histograms were then gated for “PI-positive” or “PI-negative” using the raffinose and galactose cultures treated with DMSO as controls. The DMSO controls for raffinose or galactose-containing cultures were used to determine the window of increased cell death and this difference set to 100. All compounds were similarly gated and then compared to this maximal window to establish the percent reduction in PI-positive cells.

[3] = biological target: T2, PIKfyve (PIKFYVE-NanoLuc fusion in HEK293 cells) (Homo sapiens, UniProt Q9Y2I7); experiment: NanoBRET TE Intracellular Kinase Assay, K-8 (Promega) cell-based assay; details: 2 hours, read-out: hPIKfyve BRET IC50
T2 construct: containing a full-length PIKfyve according to manufacturer's specifications; host or cells: HEK293
T2 sequence (Q9Y2I7 whole entry, the tested form may be a part): as the sequence (Q9Y2I7 whole entry S696N/L932S/Q995L/T998S/S1033A/Q1183K) above, with N696S, S932L, L995Q, S998T, A1033S, K1183Q counted along it
Description: NanoBRET™ TE Intracellular Kinase Assay, K-8 (Promega) Cell-Based Assay. Intracellular inhibition of PIKfyve was assayed using Promega's NanoBRET™ TE Intracellular Kinase Assay, K-8 according to manufacturer's instructions. A dilution series of test compounds was added for 2 hours to HEK293 cells transfected for a minimum of 20 hours with PIKFYVE-NanoLuc® Fusion Vector (Promega) containing a full-length PIKfyve according to manufacturer's specifications in a 96-well plate. Kinase activity was detected by addition of a NanoBRET™ tracer reagent, which was a proprietary PIKfyve inhibitor appended to a fluorescent probe (BRET, bioluminescence resonance energy transfer). Test compounds were tested at concentrations of 10, 3, 1, 0.3, 0.1, 0.03, 0.01, 0.003 μM. BRET signals were measured by a GloMax® Discover Multimode Microplate Reader (Promega) using 0.3 sec/well integration time, 450BP donor filter and 600LP acceptor filters. Active test compounds that bound PIKfyve and displaced the tracer reduced BRET signal. IC50 values were then calculated by fitting the data to the normalized BRET ratio.

[4] = ADP-Glo with full-length PIKfyve, read-out: PIKfyve IC50
[5] = values plotted in FIG. 7, read-out: PIKFYVE Biochemistry (IC50)
[6] = ADP-Glo, full-length human PIKFYVE, read-out: hPIKfyve IC50

Row | Structure (SMILES) | IC50 [2] | IC50 [1, 5] | further results
1 | Cc1cccc(/C=N/Nc2cc(N3CC4CC3CO4)n3nc(-c4ccncc4)cc3n2)c1 (centres unmarked) | – | – | IC50 [1, 4]: 0.012 µM
2 | CN(C)c1cc(N2CCOCC2)n2nc(-c3ccncc3)cc2n1 | – | – | IC50 [1, 4]: 2.01 µM
3 | Cc1cccc(/C=N/Nc2cc(N3CCOCC3)nc(OCCc3ccc(CN)cc3)n2)c1 | 1.12 µM | 0.007 µM | –
4 | c1ccc(C2CN(c3cc(N4CCOCC4)n4nc(-c5ccncc5)cc4n3)CCN2)cc1 (centres unmarked) | > 15 µM | 2.66 µM | –
5 | c1ccc(-c2cccc(-c3cc(N4CCOCC4)n4nc(-c5ccncc5)cc4n3)n2)cc1 | 0.23 µM | 0.014 µM | –
6 | c1cc(-c2cc3nc(C4CNC4)cc(N4CCOCC4)n3n2)ccn1 | > 15 µM | 8.02 µM | –
7 | c1cc(-c2nc3nc(N4CCOCC4)cc(N4CCOCC4)n3n2)ccn1 | > 15 µM | 9.2 µM | –
8 | O=c1ccc(-c2ccccc2)nn1-c1cc(N2CCOCC2)n2nc(-c3ccncc3)cc2n1 | > 15 µM | 0.295 µM | –
9 | c1ccc(Cc2ncccc2-c2cc(N3CCOCC3)n3nc(-c4ccncc4)cc3n2)cc1 | > 15 µM | 1.09 µM | –
10 | Oc1cc(-c2ccccc2)nn1-c1cc(N2CCOCC2)n2nc(-c3ccncc3)nc2n1 | 0.693 µM | 0.018 µM | –
11 | Oc1cc(C2CCOCC2)nn1-c1cc(N2CCOCC2)n2nc(-c3ccncc3)cc2n1 | 9.11 µM | 0.253 µM | –
12 | Cc1cccc(/C=N/Nc2nc(N3CCOCC3)c3ncccc3n2)c1 | 8.21 µM | 0.018 µM | –
13 | c1ccc(-c2ccnc(-c3cc(N4CCOCC4)nc(OCc4ccncc4)n3)n2)cc1 | 1.45 µM | 0.032 µM | –
14 | c1cc(COc2nc(N3CCOCC3)cc(-n3cc4c(n3)COCC4)n2)ccn1 | > 15 µM | 1.34 µM | –
15 | c1ccc(-c2nc(-c3cc(N4CCOCC4)nc(OCc4ccncc4)n3)no2)cc1 | > 15 µM | – | –
16 | O=c1c(CCOc2cccnc2)cc2ncncc2n1-c1ccccc1 | > 15 µM | – | –
17 | O=c1ccn(Cc2nc(N3CCOCC3)cc(-n3nccc3-c3ccccc3)n2)cc1 | > 15 µM | – | –
18 | c1ccc(-c2ccnn2-c2cc(N3CCOCC3)n3nc(-c4ccncc4)nc3n2)cc1 | > 15 µM | 0.767 µM | –

Row | Structure (SMILES) | IC50 [2] | IC50 [1, 5] | further results
19 | Fc1cccc(-c2ccnn2-c2nc(N3CCOCC3)c3ncccc3n2)c1 | 5.75 µM | – | –
20 | c1ccc(N2CCc3c(OCCc4ccccn4)nc(N4CCOCC4)nc32)cc1 [Compound 1, 4-(7-phenyl-4-(2-(pyridin-2-yl)ethoxy)-6,7-dihydro-5H-pyrrolo[2,3-d]pyrimidin-2-yl)morpholine] | – | – | IC50 [3]: 0.01 to 0.1 µM
21 | c1ccc(N2CCc3c(OCc4cccnc4)nc(N4CCOCC4)nc32)cc1 [Compound 3] | – | – | IC50 [3]: 0.01 to 0.1 µM
22 | c1ccc(N2CCc3c(OCc4ccncc4)nc(N4CCOCC4)nc32)cc1 [Compound 4] | – | – | IC50 [1, 6]: 0.01 to 0.1 µM
23 | CN1CCCC(COc2nc(N3CCOCC3)nc3c2CCN3c2ccccc2)C1 (centres unmarked) [Compound 7] | – | – | IC50 [1, 6]: 1 to 10 µM
24 | c1ccc(N2CCc3c(OCC4CCCO4)nc(N4CCOCC4)nc32)cc1 (centres unmarked) [Compound 8] | – | – | IC50 [1, 6]: 0.01 to 0.1 µM
25 | c1cncc(N2CCc3c(COC4CCNC4)nc(N4CCOCC4)nc32)c1 (centres unmarked) [Compound 13, 4-(7-(pyridin-3-yl)-4-((pyrrolidin-3-yloxy)methyl)-5,6-dihydro-5H-pyrrolo[2,3-d]pyrimidin-2-yl)morpholine] | – | – | IC50 [1, 6]: 0.1 to 1 µM
26 | CC(C)(C)OC(=O)N1CCC(OCc2nc(N3CCOCC3)nc3c2CCN3c2cccnc2)C1 (centres unmarked) [Compound 15, tert-butyl 3-((2-morpholino-7-(pyridin-3-yl)-6,7-dihydro-5H-pyrrolo[2,3-d]pyrimidin-4-yl)methoxy)pyrrolidine-1-carboxylate] | – | – | IC50 [1, 6]: 1 to 10 µM
27 | c1ccc(N2CCc3c(Cc4ccccn4)nc(N4CCOCC4)nc32)cc1 [Compound 37, 4-(7-phenyl-4-(pyridin-2-ylmethyl)-6,7-dihydro-5H-pyrrolo[2,3-d]pyrimidin-2-yl)morpholine] | – | – | IC50 [1, 6]: 0.01 to 0.1 µM
28 | c1ccc(Cc2nc(N3CCOCC3)nc3c2CCN3c2cccnc2)nc1 [Compound 38] | – | – | IC50 [1, 6]: 0.1 to 1 µM
29 | c1ccc(N2CCc3c(NC4COC4)nc(N4CCOCC4)nc32)cc1 [Compound 48, 2-morpholino-N-(oxetan-3-yl)-7-phenyl-6,7-dihydro-5H-pyrrolo[2,3-d]pyrimidin-4-amine] | – | – | IC50 [1, 6]: 1 to 10 µM
30 | c1cncc(-c2nc(N3CCOCC3)nc3c2CCN3c2ccc3c(c2)OCCO3)c1 [Compound 64, 4-(7-(2,3-dihydrobenzo[b][1,4]dioxin-6-yl)-4-(pyridin-3-yl)-6,7-dihydro-5H-pyrrolo[2,3-d]pyrimidin-2-yl)morpholine] | – | – | IC50 [1, 6]: 0.01 to 0.1 µM
31 | Cc1cccc(/C=N/Nc2nc(N3CCOCC3)c3nc(-c4ccncc4)n(C)c3n2)c1 [drawing 252] | – | – | IC50 [1, 4]: 0.0049 µM
32 | Cn1c(-c2ccncc2)nc2c(N3CCOCC3)ncnc21 [drawing 253] | – | – | IC50 [1, 4]: 0.64 µM
33 | Cn1c(-c2ccncc2)nc2c(N3CCOCC3)ncnc21 [drawing 265] | > 15 µM | 0.64 µM | –
34 | Cc1cccc(/C=N/Nc2nc(N3CCOCC3)c3nc(-c4ccncc4)n(C)c3n2)c1 [drawing 266] | 4.72 µM | 0.005 µM | –
35 | COc1nc(N2CCOCC2)nc2c1CCN2c1ccccc1 [drawing 274] | 4.27 µM | 0.085 µM | –
36 | c1ccc(N2CCc3c(OCc4cccnc4)nc(N4CCOCC4)nc32)cc1 [drawing 275] | 2.69 µM | 0.042 µM | –
